Data as given in US9408856B2, “Topical steroidal formulations” (Temple University—Of The Commonwealth System of Higher …, priority 2008, dated 2016).
Where “and” joins values, the source holds several entries; their conditions need not be identical. Equal values may be shown once.

Tests used:
[1] = test system: TPA-stimulated epidermal DNA synthesis in mouse epidermis; assay: TPA-induced epidermal DNA synthesis in mouse epidermis, transdermal fluasterone; format: in vivo, CD-1 mice; conditions: for cpm/μg DNA: 20 h, single mice and group mean
Procedure: In dose-response experiments the anti-hyperplastic efficacy of fluasterone in TPA-treated mouse epidermis to determine bioavailability following different routes of administration was measured. Mice were treated with a single dose of fluasterone (either orally, subcutaneously, or transdermally) followed by a single application of TPA to the shaved back one hour latter. In case of transdermal administration, fluasterone is applied in a topical formulation to the shaved abdomen to allow for systemic absorption to the back of the animal. Twenty hours after TPA application, the mice are injected with 60 μCi of [3H] thymidine, sacrificed 20 minutes later, and a 2×2 cm2 of skin from the shaved back is excised and processed for the determination of the amount of [3H] thymidine incorporated per unit of epidermal DNA. (Hennings et. al., Cancer Res. 28:543-552, 1968).
Female CD-1 mice, 40-43 days old, were obtained from Charles River Laboratories, Kingston, N.Y. The mice were housed two per cage in plastic shoebox cages on Absorbdri bedding with 12 hours of alternating light and dark in the Central Animal Facility. The mice had ad libitum access to Purina 5015 chow and acidified tap water (pH S 2.6). The mice were allowed to acclimate to the facility for approximately two weeks prior to use in an experiment. […]
The mice were weighed, marked with magic marker on the tail, and shaved on the back and the abdomen one day prior to treatment. Only those mice showing no hair regrowth were used in the experiment. Fluasterone was applied to the shaved abdomen one hour before TPA was applied to the shaved back. The mice were anesthetized and on their backs prior to topical application of TPA. […]
The mice were anesthetized with Isoflurane, and then were given an intramuscular injection of 0.1 mL solution of ketamine (50 mg/kg), xylazine (10 mg/kg) and atropine (0.1 mg/kg). Approximately 10 minutes after the i.m. injection (after the mice could not turn over when placed on their backs), the mice were treated with 5 μL of a 12.5 mg/mL fluasterone/carbitol solution to give a dose of 2.5 mg/kg. The mice were anesthetized and on their backs for approximately 30 minutes after application of fluasterone/carbitol solution. One hour after the application of fluasterone/carbitol solution, 2 μg of TPA dissolved in. 0.2 mL of acetone was applied to the shaved area on the back of each mouse. […]
The mice were anesthetized with Isoflurane, and then were given an intramuscular injection of 0.1 mL solution of ketamine (50 mg/kg), xylazine (10 mg/kg) and atropine (0.1 mg/kg). Approximately 10 minutes after the i.m. injection (after the mice could not turn over when placed on their backs), the mice were treated with 2.5 μl, of a 12.5 mg/mL fluasterone/carbitol solution to give a dose of 1.25 mg/kg. The mice were anesthetized and on their backs for approximately 30 minutes after application of fluasterone/carbitol solution. One hour after the application of fluasterone/carbitol solution, 2 μg of TPA dissolved in 0.2 mL of acetone was applied to the shaved area on the back of each mouse.
The mice were anesthetized with Isoflurane, and then were given an intramuscular injection of 0.1 mL solution of ketamine (50 mg/kg), xylazine (10 mg/kg) and atropine (0.1 mg/kg). Approximately 10 minutes after the i.m. injection (after the mice could not turn over when placed on their backs), the mice were treated with 10 μL of a 12.5 mg/mL fluasterone/Cremophor EL solution to give a dose of 5 mg/kg. The mice were anesthetized and on their backs for approximately 30 minutes after application of fluasterone/Cremophor EL solution. One hour after the application of fluasterone/Cremophor EL solution, 2 μg of TPA dissolved in 0.2 mL of acetone was applied to the shaved area on the back of each mouse.
The mice were anesthetized with Isoflurane, and then were given an intramuscular injection of 0.1 mL solution of ketamine (50 mg/kg), xylazine (10 mg/kg) and atropine (0.1 mg/kg). […]

[2] = test system: TPA-stimulated epidermal DNA synthesis in mouse epidermis; assay: as above; format: in vivo, CD-1 mice; conditions: 20 h
[3] = Cremophor EL solution, 5 mg/kg transdermal (abdomen) 1 h before 2 μg TPA (back), single mice, 5 mg/kg
[4] = Cremophor EL:ethanol (50:50 v/v) solution, 1.9 mg/kg transdermal (abdomen) 1 h before 2 μg TPA (back), single mice, 1.9 mg/kg
[5] = Cremophor EL:ethanol (50:50 v/v) solution, 2.5 mg/kg transdermal (abdomen) 1 h before 2 μg TPA (back), single mice, 2.5 mg/kg
[6] = Tween 80:ethanol (50:50 v/v) solution, 1.9 mg/kg transdermal (abdomen) 1 h before 2 μg TPA (back), single mice, 1.9 mg/kg
[7] = carbitol solution, 1.25 mg/kg transdermal (abdomen) 1 h before 2 μg TPA (back), single mice, 1.25 mg/kg
[8] = carbitol solution, 2.5 mg/kg transdermal (abdomen) 1 h before 2 μg TPA (back), single mice, 2.5 mg/kg
[9] = carbitol solution, 5 mg/kg transdermal (abdomen) 1 h before 2 μg TPA (back), single mice, 5 mg/kg
[10] = ethanol:limonene:isopropyl myristate (81:15:4) solution, 1.5 mg/kg transdermal (abdomen) 1 h before 2 μg TPA (back), single mice, 1.5 mg/kg
[11] = ethanol:limonene:isopropyl myristate (81:15:4) solution, 5 mg/kg transdermal (abdomen) 1 h before 2 μg TPA (back), single mice, 5 mg/kg
[12] = micronized suspension in ethanol:water:Tween 80 (76:19:5), 1.5 mg/kg transdermal (abdomen) 1 h before 2 μg TPA (back), single mice and group mean, 1.5 mg/kg
[13] = micronized suspension in ethanol:water:Tween 80 (76:19:5), 1.5 mg/kg transdermal (abdomen) 1 h before 2 μg TPA (back), single mice, 1.5 mg/kg
[14] = micronized suspension in ethanol:water:Tween 80 (76:19:5), 2.5 mg/kg transdermal (abdomen) 1 h before 2 μg TPA (back), single mice, 2.5 mg/kg

## C[C@]12CCCCC1=CC[C@@H]1[C@@H]2CC[C@]2(C)C(=O)[C@H](F)C[C@@H]12 [Fluasterone, 16α-fluoro-5-androsten-17-one]
[1]; Cremophor EL solution, 1.25 mg/kg transdermal (abdomen) 1 h before 2 μg TPA (back), 1.25 mg/kg
  cpm/μg DNA: 507.3 cpm/μg DNA and 414.3 cpm/μg DNA and 460.1 ± 65.8 cpm/μg DNA
[1]; Cremophor EL solution, 5 mg/kg transdermal (abdomen) 1 h before 2 μg TPA (back), 5 mg/kg
  cpm/μg DNA: 116.7 cpm/μg DNA and 147.4 cpm/μg DNA and 132.1 ± 21.7 cpm/μg DNA
[1]; Tween 80:ethanol (50:50 v/v) solution, transdermal
  lowest effective dose: ≤ 2.5 mg/kg
[1]; carbitol solution, 1.9 mg/kg transdermal (abdomen) 1 h before 2 μg TPA (back), 1.9 mg/kg
  cpm/μg DNA: 365.9 cpm/μg DNA and 227.7 cpm/μg DNA and 296.8 ± 97.7 cpm/μg DNA
[1]; carbitol solution, 5 mg/kg transdermal (abdomen) 1 h before 2 μg TPA (back), 5 mg/kg
  cpm/μg DNA: 533.8 cpm/μg DNA and 467.1 cpm/μg DNA and 500.5 ± 47.2 cpm/μg DNA
[1]; ethanol:limonene:isopropyl myristate (81:15:4) solution, 1.5 mg/kg transdermal (abdomen) 1 h before 2 μg TPA (back), 1.5 mg/kg
  cpm/μg DNA: 226.9 cpm/μg DNA and 147.5 cpm/μg DNA
[1]; mice
  transdermal potency compared with s.c. administration in abolishing TPA-stimulated hyperplasia: as potent as subcutaneous injection
[1]; topical solutions and suspension applied to abdomen
  transdermal dose that suppresses TPA-stimulated epidermal [3H]thymidine incorporation and/or epidermal DNA content: 2.5 mg/kg
[2]; Cremophor EL solution, 1.25 mg/kg transdermal (abdomen) 1 h before 2 μg TPA (back), single mice, 1.25 mg/kg
  μg DNA/0.2 mL: 28.1 μg DNA/0.2 mL and 14.9 μg DNA/0.2 mL
[2]; Cremophor EL solution, 1.9 mg/kg transdermal (abdomen) 1 h before 2 μg TPA (back), single mice and group mean, 1.9 mg/kg
  cpm/μg DNA: 161.0 cpm/μg DNA and 270.3 cpm/μg DNA and 215.7 ± 77.3 cpm/μg DNA
[2]; Cremophor EL solution, 1.9 mg/kg transdermal (abdomen) 1 h before 2 μg TPA (back), single mice, 1.9 mg/kg
  μg DNA/0.2 mL: 15.4 μg DNA/0.2 mL and 20.1 μg DNA/0.2 mL
[2]; Cremophor EL solution, 2.5 mg/kg transdermal (abdomen) 1 h before 2 μg TPA (back), single mice, 2.5 mg/kg
  μg DNA/0.2 mL: 8.6 μg DNA/0.2 mL and 10.1 μg DNA/0.2 mL
[2]; [3]
  cpm: 1,015 cpm and 1,686 cpm
  μg DNA/0.2 mL: 8.4 μg DNA/0.2 mL and 11.2 μg DNA/0.2 mL
[2]; Cremophor EL:ethanol (50:50 v/v) solution, 1.9 mg/kg transdermal (abdomen) 1 h before 2 μg TPA (back), single mice and group mean, 1.9 mg/kg
  cpm/μg DNA: 207.8 cpm/μg DNA and 160.4 cpm/μg DNA
[2]; [4]
  corrected cpm: 5,965 cpm and 4,025 cpm
  cpm: 5,990 cpm and 4,050 cpm
  μg DNA/0.2: 28.7 μg DNA/0.2 and 25.1 μg DNA/0.2
[2]; Cremophor EL:ethanol (50:50 v/v) solution, 2.5 mg/kg transdermal (abdomen) 1 h before 2 μg TPA (back), single mice and group mean, 2.5 mg/kg
  cpm/μg DNA: 423.2 cpm/μg DNA and 410.7 cpm/μg DNA and 462.8 cpm/μg DNA
[2]; [5]
  corrected cpm: 7,068 cpm and 6,243 cpm and 6,341 cpm
  cpm: 7,093 cpm and 6,268 cpm and 6,366 cpm
  μg DNA/0.2: 16.7 μg DNA/0.2 and 15.2 μg DNA/0.2 and 13.7 μg DNA/0.2
[2]; Cremophor EL:ethanol (50:50 v/v) solution, 5 mg/kg transdermal (abdomen) 1 h before 2 μg TPA (back), single mice and group mean, 5 mg/kg
  cpm/μg DNA: 125.1 cpm/μg DNA and 222.9 cpm/μg DNA and 206.4 cpm/μg DNA
[2]; Cremophor EL:ethanol (50:50 v/v) solution, 5 mg/kg transdermal (abdomen) 1 h before 2 μg TPA (back), single mice, 5 mg/kg
  μg DNA/0.2: 15.0 μg DNA/0.2 and 14.0 μg DNA/0.2 and 13.3 μg DNA/0.2
[2]; Tween 80:ethanol (50:50 v/v) solution, 1.9 mg/kg transdermal (abdomen) 1 h before 2 μg TPA (back), single mice and group mean, 1.9 mg/kg
  cpm/μg DNA: 216.3 cpm/μg DNA and 189.8 cpm/μg DNA
[2]; [6]
  corrected cpm: 3,114 cpm and 3,150 cpm
  cpm: 3,139 cpm and 3,175 cpm
  μg DNA/0.2: 14.4 μg DNA/0.2 and 16.6 μg DNA/0.2
[2]; carbitol solution, 1.25 mg/kg transdermal (abdomen) 1 h before 2 μg TPA (back), single mice and group mean, 1.25 mg/kg
  cpm/μg DNA: 270.1 cpm/μg DNA and 341.3 cpm/μg DNA and 287.9 ± 25.2 cpm/μg DNA
[2]; [7]
  corrected cpm: 6,051 cpm and 10,170 cpm
  cpm: 6,086 cpm and 10,205 cpm
  μg DNA/0.2 mL: 22.4 μg DNA/0.2 mL and 29.8 μg DNA/0.2 mL
[2]; carbitol solution, 1.9 mg/kg transdermal (abdomen) 1 h before 2 μg TPA (back), single mice, 1.9 mg/kg
  μg DNA/0.2 mL: 18.4 μg DNA/0.2 mL and 11.8 μg DNA/0.2 mL
[2]; carbitol solution, 2.5 mg/kg transdermal (abdomen) 1 h before 2 μg TPA (back), single mice and group mean, 2.5 mg/kg
  cpm/μg DNA: 64.8 cpm/μg DNA and 73.8 cpm/μg DNA and 69.3 ± 6.3 cpm/μg DNA
[2]; [8]
  corrected cpm: 616 cpm and 649 cpm
  cpm: 651 cpm and 684 cpm
  μg DNA/0.2 mL: 9.5 μg DNA/0.2 mL and 8.8 μg DNA/0.2 mL
[2]; [9]
  corrected cpm: 5,338 cpm and 5,045 cpm
  cpm: 5,373 cpm and 5,080 cpm
  μg DNA/0.2 mL: 10.0 μg DNA/0.2 mL and 10.8 μg DNA/0.2 mL
[2]; ethanol:limonene:isopropyl myristate (81:15:4) solution, 1.5 mg/kg transdermal (abdomen) 1 h before 2 μg TPA (back), single mice and group mean, 1.5 mg/kg
  μg DNA/0.2 mL: 25.8 μg DNA/0.2 mL and 25.1 μg DNA/0.2 mL
[2]; [10]
  corrected cpm: 5,854 cpm and 3,703 cpm
  cpm: 5,883 cpm and 3,732 cpm
[2]; ethanol:limonene:isopropyl myristate (81:15:4) solution, 2.5 mg/kg transdermal (abdomen) 1 h before 2 μg TPA (back), single mice and group mean (p < 0.05 vs TPA), 2.5 mg/kg
  μg DNA/0.2 mL: 18.1 μg DNA/0.2 mL and 15.3 μg DNA/0.2 mL
[2]; ethanol:limonene:isopropyl myristate (81:15:4) solution, 5 mg/kg transdermal (abdomen) 1 h before 2 μg TPA (back), single mice and group mean (p < 0.05 vs TPA), 5 mg/kg
  μg DNA/0.2 mL: 15.9 μg DNA/0.2 mL and 17.3 μg DNA/0.2 mL
[2]; ethanol:limonene:isopropyl myristate (81:15:4) solution, 5 mg/kg transdermal (abdomen) 1 h before 2 μg TPA (back), single mice and group mean, 5 mg/kg
  cpm/μg DNA: 532.5 cpm/μg DNA and 603.2 cpm/μg DNA
[2]; [11]
  corrected cpm: 8,467 cpm and 10,436 cpm
  cpm: 8,496 cpm and 10,465 cpm
[2]; [12]
  cpm/μg DNA: 135.7 cpm/μg DNA and 98.9 cpm/μg DNA
  μg DNA/0.2 mL: 34.3 μg DNA/0.2 mL and 35.2 μg DNA/0.2 mL
[2]; [13]
  corrected cpm: 4,655 cpm and 3,481 cpm
  cpm: 4,684 cpm and 3,510 cpm
[2]; micronized suspension in ethanol:water:Tween 80 (76:19:5), 2.5 mg/kg transdermal (abdomen) 1 h before 2 μg TPA (back), single mice and group mean (p < 0.02 vs TPA), 2.5 mg/kg
  μg DNA/0.2 mL: 19.6 μg DNA/0.2 mL and 16.6 μg DNA/0.2 mL
[2]; micronized suspension in ethanol:water:Tween 80 (76:19:5), 2.5 mg/kg transdermal (abdomen) 1 h before 2 μg TPA (back), single mice and group mean, 2.5 mg/kg
  cpm/μg DNA: 109.5 cpm/μg DNA and 139.0 cpm/μg DNA
[2]; [14]
  corrected cpm: 2,147 cpm and 2,308 cpm
  cpm: 2,176 cpm and 2,337 cpm
[2]; micronized suspension in ethanol:water:Tween 80 (76:19:5), 5 mg/kg transdermal (abdomen) 1 h before 2 μg TPA (back), single mice and group mean (p < 0.01 vs TPA), 5 mg/kg
  μg DNA/0.2 mL: 16.5 μg DNA/0.2 mL and 18.9 μg DNA/0.2 mL
